Assay results reported in PubChem BioAssay (NCI).
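Tested at 5 concentrations; 48 h exposure; 96-well plates; endpoints linearly interpolated, else capped at highest concentration. Abbreviation: GI50, concentration required for 50% inhibition of growth. TGI: total growth inhibition.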

Key:
Experiment in all cases: growth of human tumour cells (NCI), 48 h
[1] = tested on: UO-31 renal
[2] = tested on: NCI-H226 lung
[3] = tested on: HOP-62 NSCLC
[4] = tested on: SF-539 CNS
[5] = tested on: U251 CNS
[6] = tested on: NCI/ADR-RES ovarian
[7] = tested on: CCRF-CEM leukemia
[8] = tested on: T-47D breast
[9] = tested on: MOLT-4 leukemia
[10] = tested on: SK-MEL-2 melanoma
[11] = tested on: MDA-MB-435
[12] = tested on: MDA-MB-231 breast
[13] = tested on: SF-295 CNS
[14] = tested on: SK-MEL-28 melanoma
[15] = tested on: IGROV1 ovarian
[16] = tested on: M14 melanoma
[17] = tested on: NCI-H460 lung
[18] = tested on: SK-MEL-5 melanoma
[19] = tested on: NCI-H522 lung
[20] = tested on: OVCAR-8 ovarian
[21] = tested on: HT29 colon
[22] = tested on: SR leukemia
[23] = tested on: SN12C renal
[24] = tested on: HCC-2998 colon
[25] = tested on: ACHN renal
[26] = tested on: BT-549 breast
[27] = tested on: NCI-H23 lung
[28] = tested on: A549 NSCLC
[29] = tested on: K-562 leukemia
[30] = tested on: LOX IMVI melanoma
[31] = tested on: HCT-15 colon
[32] = tested on: TK-10 renal
[33] = tested on: SNB-75 CNS
[34] = tested on: HOP-92 NSCLC
[35] = tested on: SW-620 colon
[36] = tested on: KM12 colon
[37] = tested on: PC-3 prostate
[38] = tested on: RPMI-8226 leukemia
[39] = tested on: COLO 205 colon
[40] = tested on: HL-60(TB) leukemia
[41] = tested on: MALME-3M melanoma
[42] = tested on: DU-145 prostate
[43] = tested on: RXF 393 renal
[44] = tested on: A498 renal
[45] = tested on: OVCAR-4 ovarian
[46] = tested on: UACC-62 melanoma
[47] = tested on: SF-268 CNS
[48] = tested on: OVCAR-5 ovarian
[49] = tested on: OVCAR-3 ovarian
[50] = tested on: HCT-116 colon
[51] = tested on: UACC-257 melanoma
[52] = tested on: SK-OV-3 ovarian
[53] = tested on: HS 578T breast
[54] = tested on: 786-0 renal
[55] = tested on: CAKI-1 renal
[56] = tested on: SNB-19 CNS
[57] = tested on: MCF7 breast

Cn1cc(C2=C(c3c4n(c5ccccc35)CCN(C(N)=S)C4)C(=O)NC2=O)c2ccccc21
GI50 [1]: 4.37 µM
TGI [1]: > 21.7 µM
GI50 [2]: 5.84 µM
TGI [2]: > 19 µM
GI50 [3]: 6.81 µM
TGI [3]: > 25 µM
GI50 [4]: 1.48 µM
TGI [4]: 7.86 µM
GI50 [5]: 4.49 µM
TGI [5]: 11.2 µM
GI50 [6]: 9.48 µM
TGI [6]: > 25 µM
GI50 [7]: 4.61 µM
TGI [7]: > 25 µM
GI50 [8]: 10.4 µM
TGI [8]: > 25 µM
GI50 [9]: 5.12 µM
TGI [9]: > 20.9 µM
GI50 [10]: 4.32 µM
TGI [10]: 13 µM
GI50 [11]: 0.883 µM
TGI [11]: 5.98 µM
GI50 [12]: 6.95 µM
TGI [12]: > 23.2 µM
GI50 [13]: 2.64 µM
TGI [13]: 10.8 µM
GI50 [14]: 5.34 µM
TGI [14]: > 25 µM
GI50 [15]: 7.82 µM
TGI [15]: > 19.1 µM
GI50 [16]: 4.71 µM
TGI [16]: > 25 µM
GI50 [17]: 6.91 µM
TGI [17]: > 22.8 µM
GI50 [18]: 2.67 µM
TGI [18]: > 16.7 µM
GI50 [19]: 1.95 µM
TGI [19]: > 15 µM
GI50 [20]: 7.13 µM
TGI [20]: > 25 µM
GI50 [21]: 2.28 µM
TGI [21]: > 25 µM
GI50 [22]: 1.35 µM
TGI [22]: > 15.1 µM
GI50 [23]: 6.99 µM
TGI [23]: > 25 µM
GI50 [24]: 6.13 µM
TGI [24]: 20.8 µM
GI50 [25]: 5.95 µM
TGI [25]: > 25 µM
GI50 [26]: 6.83 µM
TGI [26]: > 25 µM
GI50 [27]: 7.34 µM
TGI [27]: > 25 µM
GI50 [28]: 5.55 µM
TGI [28]: > 25 µM
GI50 [29]: 1.59 µM
TGI [29]: > 17 µM
GI50 [30]: 2.5 µM
TGI [30]: > 25 µM
GI50 [31]: 6.31 µM
TGI [31]: > 25 µM
GI50 [32]: 8.64 µM
TGI [32]: > 23.7 µM
GI50 [33]: 0.36 µM
TGI [33]: 10.6 µM
GI50 [34]: 8.82 µM
TGI [34]: > 25 µM
GI50 [35]: 3.45 µM
TGI [35]: > 25 µM
GI50 [36]: 3.05 µM
TGI [36]: 9.69 µM
GI50 [37]: 4.92 µM
TGI [37]: > 25 µM
GI50 [38]: 12.9 µM
TGI [38]: > 25 µM
GI50 [39]: 5.97 µM
TGI [39]: > 21.6 µM
GI50 [40]: 2.33 µM
TGI [40]: 8.05 µM
GI50 [41]: > 11 µM
TGI [41]: > 25 µM
GI50 [42]: 8.04 µM
TGI [42]: > 23.1 µM
GI50 [43]: 2.34 µM
TGI [43]: 10.6 µM
GI50 [44]: 1.59 µM
TGI [44]: 9.64 µM
GI50 [45]: 6.87 µM
TGI [45]: > 25 µM
GI50 [46]: 4.27 µM
TGI [46]: > 25 µM
GI50 [47]: 5.58 µM
TGI [47]: > 25 µM
GI50 [48]: 16 µM
TGI [48]: > 25 µM
GI50 [49]: 1.75 µM
TGI [49]: 7.36 µM
GI50 [50]: 4.11 µM
TGI [50]: > 16.8 µM
GI50 [51]: 7.11 µM
TGI [51]: > 25 µM
GI50 [52]: 4.51 µM
TGI [52]: > 25 µM
GI50 [53]: 0.88 µM
TGI [53]: 11.1 µM
GI50 [54]: 5.23 µM
TGI [54]: > 25 µM
GI50 [55]: 4.85 µM
TGI [55]: > 20.8 µM
GI50 [56]: 12.8 µM
TGI [56]: > 25 µM
GI50 [57]: 1.24 µM
TGI [57]: > 17.2 µM
